The values below come from US20200003759A1, “METHODS FOR IDENTIFYING METAP-2 MODULATORS” (Zafgen, Inc., priority 2017, published 2020).

One data set concerns p21. Kind of data set: p21 protein level in HUVEC lysate. In kind it is cell-based, human. As to the method:
(§1) Cell lysates were stored at −80° C.
(§2) All values obtained were normalized against protein concentration.

Data set [1] relates to plasminogen activator inhibitor-1 (PAI-1). As to the kind of experiment: PAI-1 protein level in HUVEC lysate. The class given is cell-based, human. As to the method:
as §1, §2

Data set [2] concerns von Willebrand factor (vWF). Kind of data set: vWF level in HUVEC lysate. In kind it is cell-based, human. The settings on record: discrete time intervals and concentrations (FIG. 3). As to the method: as §1, §2
In the next data set the test system is p53. As to the kind of experiment: p53 protein level in HUVEC lysate. Conditions: discrete time intervals and concentrations (FIG. 4). The class given is cell-based, human. As to the method: as §1, §2
Data set [3] is classed as in vivo. On the procedure:
Male beagle dogs 10 to 20 months of age (Marshall BioResources, North Rose, NY) were individually housed at the testing facility. […] […]. […] Body weight and food intake were recorded daily. Blood was collected before each dose and 4 hours after each dose for hematology (e.g., platelet count), coagulation parameters (e.g., thrombin time, antithrombin III), and protein panel analysis (e.g., D-dimer) (Nextcea, Woburn, Mass.).

The conditions of data set [4]: cited from earlier work.
Data set [5] deals with HUVEC. Kind of data set: Inhibition of HUVEC proliferation as a function of drug exposure time (washout assay).
Experimental: (§3) After incubation with drug or vehicle, EC proliferation was analyzed using a DNA dye (CyQUANT®) added to lysed cells to provide a fluorescent signal relative to the amount of DNA, allowing a measure of cell density.
A washout assay protocol is as follows: Day 1: plate cells: Plate cells at 0.3×10^4 cells/well in collagen coated 96-well plates; Incubate cells at 37° C., 5% CO2 in a humidified atmosphere overnight. Day 2: dilute and add MetAP2 inhibitor compounds: Dilute compounds in cell culture medium to the appropriate concentration. Add medium containing compound onto cells. Incubate cells at 37° C., 5% CO2 in a humidified atmosphere for the appropriate timepoint. Washout: After the indicated time, remove medium from the relevant samples and wash twice with PBS. Replace with fresh medium Incubate at 37° C., 5% CO2 in a humidified atmosphere until final incubation time. […] Measure cell proliferation using CyQuant assay.
The cells were incubated for 72 hrs and cell proliferation was measured to assess inhibition. […] Error bars represent the standard error of the mean for each condition (n=8 replicates per test condition pooled from 3 experiments).
In a further data set the test system is thrombomodulin (TM). On the procedure:
For LC-MS/MS sample preparation, cell culture media was removed, cells were washed with 10 mL of Dulbecco's phosphate-buffered saline (DPBS), and 500 μL of T-PER lysis buffer was added. Cell lysates were stored at −80° C. […] For the 4- and 8-hour incubations, cells were maintained by standard culture for the remainder of the 72-hour incubation period. Cell cycle protein levels were assessed using enzyme-linked immunosorbent assays.
HUVEC cells were exposed to compounds at concentrations of 1 nM, 3 nM, 10 nM, and 20 nM. […] The protein assays performed included measurements of total p21, thrombomodulin, total p53, PAI-1, and von Willibrand factor (vWF). All values obtained were normalized against protein concentration.

Data set [6] has as its system HUVEC. As to the kind of experiment: Inhibition of HUVEC (EC) proliferation, continuous exposure, CyQUANT DNA dye. Conditions: Homo sapiens.
Experimental: In vitro studies were conducted in cultured HUVECs (Lonza, Amboise, France). Cells were cultured in endothelial growth medium 2 cell culture media (EGM-2, Lonza, Amboise, France), passaged by seeding at 3×10^3 cells/mL on T175 flasks, and allowed to reach approximately 80% confluence before experiments were conducted. Cells were trypsinized and counted using trypan blue exclusion method using an automated Cedex cell counter.
as §3
The mark [7] stands for this setting: 72 hours of incubation, all concentrations (1, 3, 10, 20 nM).
The mark [8] stands for this setting: dogs, 0.6 mg/kg s.c. Q3D (FIG. 5).
Setting [9] is: patients with type 2 diabetes, 26 weeks of treatment.
Where [10] appears, read: 10 nM, 2-hour incubation, washed (FIG. 6B).
[11] abbreviates: exposures as short as one hour (FIG. 1C).
Where [12] appears, read: shorter incubations of 4 or 8 hours.
The mark [13] stands for this setting: dogs, 2 mg/kg s.c. Q3D for 10 days.

Structures are written as SMILES. Where two headings read alike, the source gives them in different places.

Regarding `CO[C@@H]1[C@H](OC(=O)/C=C/c2ccc(OCCN(C)C)cc2)CC[C@]2(CO2)[C@H]1[C@@]1(C)O[C@@H]1CC=C(C)C` [Beloranib, beloranib], the p21 protein level result in the data set on p21 (setting [7]) was “increased p21”. Further, the p21 protein level result in the data set with p21 (short 4- or 8-hour incubations, 10 and 20 nM) was “increased p21”. In data set [1] (10 and 20 nM at the earliest timepoint), the PAI-1 protein level result is “increased PAI-1 levels”. Besides, the PAI-1 protein level entry in data set [1] (all concentrations at 72 hours) was “increased PAI-1 levels”. For the same compound, in data set [2], the vWF levels result is reported as “no effects on vWF levels”. Further, the p53 protein levels result with p53 is listed as “no effects on p53 protein levels”. Moreover, in data set [3] (dogs, 0.6 mg/kg s.c. Q3D), the tolerability result is given as “not well tolerated”. Besides, in [3] (setting [8]), the D-dimer concentrations result is given as “increased”, the “antithrombin III” value is recorded as “decreased”, the platelet count entry is recorded as “decreased” and the thrombin time result is “decreased”. Besides, the “hemostasis in toxicology studies” value in data set [3] (dogs, 0.6 mg/kg s.c. Q3D, within 2 weeks of drug administration) is listed as “some animals developed evidence of impaired hemostasis”. For the same compound, the adverse events result in data set [4] (patients with obesity, PWS, or type 2 diabetes) is “adverse events (AEs) of venous thromboembolism occurred”. In addition, in data set [4] (setting [9]), the “reduction in HbA1c” value is reported as 2.0% and the weight loss was 13%. Also, the “reduction of cell proliferation measured at 72 hours” value in the data set with HUVEC [5] (setting [10]) is “approximately 60%”. Further, in the data set on HUVEC [5] (setting [11]), the “effects on EC proliferation after short exposure” value was “occurred rapidly” and the “lowest concentration with effects on EC proliferation at short exposure” value stood at 11 × the EC50.

Regarding `CO[C@@H]1[C@H](OC(=O)N2CC(CCN3CCOCC3)C2)CC[C@]2(CO2)[C@H]1[C@@]1(C)O[C@@H]1CC=C(C)C` [Compound A], the p21 protein level result in the data set on p21 (setting [7]) is recorded as “increased p21”; in the data set on p21 (setting [12]), “no meaningful changes”. Further, the TM protein level result is “reduced TM protein levels” in the data set on thrombomodulin (TM) (setting [7]) and “no meaningful changes” in the data set with thrombomodulin (TM) (setting [12]). Also, the PAI-1 protein level entry in data set [1] (any of the concentrations or time points) was “no effect on PAI-1 protein levels”. Besides, the vWF levels entry in [2] is on record as “no effects on vWF levels”. In addition, the p53 protein levels entry in the data set with p53 is listed as “no effects on p53 protein levels”. For the same compound, in [3] (dog, in vivo, sc, 2 mg/kg), the tolerability entry is on record as “well tolerated”. The body weight entry in data set [3] (setting [13]) is listed as “Weight loss was observed”. Besides, in [3] (setting [13]), the food intake result was “unchanged”. In data set [3] (dogs, 2 mg/kg s.c. Q3D for 10 days (FIG. 5)), the “changes in clinical observations, hematology (platelet count), D-dimer, thrombin time, antithrombin III” value was “no adverse changes”. Besides, in data set [3] (dogs, 2 mg/kg s.c. Q3D, scheduled dosing period), the survival entry is reported as “all animals survived”. Further, the EC50 is 0.24 nM in the data set on HUVEC [6] (72 h, read-out: concentration that inhibited EC proliferation by 50% (EC50)) and 0.2 nM in the data set on HUVEC [6] (read-out: HUVEC Proliferation (EC50, nM)). For the same compound, the “effect on cell proliferation measured at 72 hours” value in the data set on HUVEC [5] (setting [10]) is recorded as “no effect on cell proliferation”. For the same compound, in the data set on HUVEC [5] (4 hours or less, concentrations up to 50× the EC50), the “effect on cell proliferation after short-term exposure” value is listed as “no effect on cell proliferation”. Moreover, the “continuous exposure time needed for robust inhibition of EC proliferation” value in the data set on HUVEC [5] (FIG. 1B) is no less than 48 h. Also, the “% inhibition 6XIC90 4 h exposure” value with HUVEC [5] (HUVEC proliferation, 6XIC90, 4 h exposure) came out at 5.6%. Also, in the data set on HUVEC [5] (HUVEC proliferation, 6XIC90, 24 h exposure), the “% inhibition 6XIC90 24 h exposure” value was found to be 41%. The “% inhibition 20XIC90 4 h exposure” value with HUVEC [5] (HUVEC proliferation, 20XIC90, 4 h exposure) came to 12.4%. Moreover, the “% inhibition 20XIC90 24 h exposure” value in the data set with HUVEC [5] (HUVEC proliferation, 20XIC90, 24 h exposure) was 40%.
